Values of other authors, collected in patent US8716354B2 (priority 2003, dated 2014).

Conditions: intravenous injection of a therapeutic dose

## CC(C)c1cccc(C(C)C)c1O [propofol, 2,6-diisopropylphenol]
  Time to hypnosis from the start of injection: ≤ 40 s
